From patent publication EP0211584A1, “Antihypertensive agents” (AMERICAN HOME PRODUCTS CORPORATION, priority 1985, dated 1987)
Where two headings read alike, the source gives them in different places.

Experiments:
[1] = tested on: rabbit aortic smooth muscle; assay: Ca+2 antagonism: relaxation of KCl-depolarized rabbit aortic smooth muscle strips; conditions: 20 min; for inhibition at 10 µM: Oryctolagus cuniculus, read-out: P.R. (percent relaxation of aortic tissue)
Experimental: The composition of PSS was as follows (mM): NaCl 112,KCI 5, NaHCO3 25 KH2PO4 1, MgSO4 1.2, CaCl2 2.5, dextrose 10. The lower end of each tissue strip was attached to a fixed post and the upper end to a Statham UC-4 transducer. Changes in force development were recorded on a Beckman Dynograph Polygraphic Recorder.
Following equilibration, the muscles were contracted in a depolarizing solution of PSS in which 100mM KCI was substituted for an equimolar concentration of NaCI. Following attainment of steady- state isometric force (20 min.), the test compound was added to afford a final concentration of 1 x 10^-5M. The inhibitory effect, expressed as percent relaxation, was determined from the mean of two experiments twenty minutes after the addition of the compound being tested.
(§1) The following examples illustrate the preparation of a representative number of compounds of this invention. After each example, the Ca+2 antagonist activity of the compound is presented in terms of percent relaxation of aortic tissue (P.R.) at 10-^5M concentration. […] Inhibition of super- precipitation (Antag. of Actin-Myosin interaction) is expressed as percent inhibition (mean ± standard error of the mean for at least 3 separate experiments) at a compound concentration. In the same manner, inhibition of myosin light chain phosphorylation (Antag. of MLCP) is expressed as a percent inhibition at a compound concentration. Similarly, the antihypertensive activity is reported in terms of millimetres mercury (mmHg) systolic blood pressure (B.P.) reduction at the stated time post 50 mg/kg oral dosing or other dosing as indicated.

[2] = tested on: isolated paced intact rabbit atria; assay: Cardiac depressant (negative inotropic) effect in isolated paced rabbit atria; conditions: Oryctolagus cuniculus; for IC25: read-out: IC25 (concentration which produces 25% inhibition of isometric force)
Experimental: The potential for detrimental cardiac depressant (negative inotropic) effects of the compounds of this invention was assessed in isolated paced intact rabbit atria. […] Muscles (N=5-9/compound) were stimulated at a frequency of 3Hz with a WPI stimulator for a 60 minute equilibration period. Changes in isometric force were recorded as described for the aortic smooth muscle experiments, supra. […]

[3] = biological target: Ca^+2-calmodulin dependent myosin light chain phosphorylation (Bos taurus, UniProt Q28824); assay: Inhibition of myosin light chain phosphorylation (MLCP), Silver et al.; format: biochemical; conditions: read-out: Antag. of MLCP (percent inhibition of myosin light chain phosphorylation)
Experimental: The data reported herein was obtained at a six minute time-point rather than the 1.5, 5 and 12 minute time points indicated in the superprecipita- tion assay of the Silver et al paper.
as §1

[4] = tested on: arterial actin-myosin interactions; assay: Inhibition of superprecipitation (antagonism of actin-myosin interaction), Silver et al.; format: biochemical; conditions: six minute time-point
Experimental: . The data reported herein was obtained at a six minute time-point rather than the 1.5, 5 and 12 minute time points indicated in the superprecipita- tion assay of the Silver et al paper.
as §1

[5] = tested on: spontaneously hypertensive rats; assay: Hypotensive effect: systolic blood pressure of spontaneously hypertensive rats; format: in vivo; conditions: mmHg per method
Experimental: The hypotensive in vivo effect of the compounds of this invention was determined by measuring changes in the systolic blood pressure of spontaneously hypertensive rats with a Decker Caudal Plethysmograph. The compound being tested was administered to a group of 4 rats and their systolic pressure was determined prior to and at 1.5 and 4 hours after compound administration. Initial testing was done by oral administration of the compound. Results (mmHg) are expressed as decreases in systolic blood pressure.
as §1

[6] = compound 1 x 10^-5M, 100mM KCl contraction, 20 minutes after addition, mean of two experiments
[7] = rabbit atria paced at 3Hz, 30°C, cumulative dosing
[8] = dose 50mg/kg oral, at 1.5 hours
[9] = dose 25mg/kg oral, at 1.5 hours
[10] = dose 50mg/kg oral, at 1.5 hours, 50 mg/kg
[11] = dose 50mg/kg oral, at 4 hours, 50 mg/kg

## CC1=C(C(=O)OCCOc2ccccc2)C(c2c(F)c(F)c(F)c(F)c2F)C2=C(CNCC2=O)N1 (single isomer, unassigned) [Example 4, (+ )-1,4,5,6,7,8-Hexahydro-2-methyl-5-oxo-4-(pentafluorophenyl)-1,7-naphthyridine-3-carboxylic acid 2-phenoxyethyl ester]
[1]; [6]
  inhibition at 10 µM: 61%
[2]; [7]
  IC25: 800 nM
[3]
  inhibition at 50 µM: 37%
  inhibition at 100 µM: 67%
[4]; 50µM
  Antag. of Actin-Myosin (percent inhibition of superprecipitation): 38%
[4]; 100µM
  Antag. of Actin-Myosin (percent inhibition of superprecipitation): 71%

## COC(COC(=O)C1=C(C)NC2=C(C(=O)CNC2)C1c1c(F)cccc1Cl)c1ccccc1 (centres unmarked) [Example 9, 4-(2-Chloro-6-fluoroohenyl)-1,4,5,6,7,8-hexahydro-2-methyl-5-oxo-1,7-naphthyridine-3-carboxylic acid 2-methoxy-2-phenylethyl ester]
[1]; [6]
  inhibition at 10 µM: 28%
[5]; [8]
  B.P. (systolic blood pressure reduction): -37 mm
[5]; dose 50mg/kg oral, at 4 hours
  B.P. (systolic blood pressure reduction): -14 mm
[3]
  inhibition at 100 µM: 44%
[4]; 100µM
  Antag. of Actin-Myosin (percent inhibition of superprecipitation): 40%

## CC1=C(C(=O)OCC(C)(C)Oc2ccccc2)C(c2c(F)c(F)c(F)c(F)c2F)C2=C(CNCC2=O)N1 (centres unmarked) [Example 20, 1,4,5,6,7,8-Hexahydro-2-methyl-5-oxo-4-(pentafluorophenyl)-1,7-naphthyridine-3-carboxylic acid 2-methyl-2-phenoxypropyl ester]
[1]; [6]
  inhibition at 10 µM: 51%
[5]; [9]
  B.P. (systolic blood pressure reduction): -64 mm
[3]
  inhibition at 100 µM: 62%
[4]; 100µM
  Antag. of Actin-Myosin (percent inhibition of superprecipitation): 67%

## CCOC(=O)C1=C(C)NC(C)=C(C(=O)OC)C1c1cccc([N+](=O)[O-])c1 (centres unmarked) [nitrendipine, reference compound]
[2]; [7]
  IC25: 350 nM

## COC(=O)C1=C(C)NC(C)=C(C(=O)OC)C1c1ccccc1[N+](=O)[O-] [nifedipine, reference compound]
[2]
  IC25: 50 nM

## CC1=C(C(=O)OCCOc2ccccc2)C(c2c(F)ccc(Cl)c2Cl)C2=C(CNCC2=O)N1 (centres unmarked) [Example 24, 4-(2,3-Dichloro-6-fluorophenyl)-1,4,5,6,7,8-hexahydro-2-methyl-5-oxo-1,7-naphthyridine-3-carboxylic acid 2-phenoxyethyl ester]
[1]; [6]
  inhibition at 10 µM: 65%
[2]; [7]
  IC25: 10000 nM
[3]
  inhibition at 25 µM: 8 ± 2%
  inhibition at 50 µM: 50 ± 2%
  inhibition at 100 µM: 68 ± 1%
[4]; 25µM
  Antag. of Actin-Myosin (percent inhibition of superprecipitation): 9±2%
[4]; 50µM
  Antag. of Actin-Myosin (percent inhibition of superprecipitation): 54±3%
[4]; 100µM
  Antag. of Actin-Myosin (percent inhibition of superprecipitation): 72±1%

## CC1=C(C(=O)OCCOc2ccccc2)C(c2c(F)ccc(C)c2Cl)C2=C(CNCC2=O)N1 (centres unmarked) [Example 23, 4-(2-chloro-6-fluoro-3-methylphenyl)-1,4,5,6,7,8-hexahydro-2-methyl-5-oxo-1,7-naphthyridine-3-carboxylic acid 2-phenoxyethyl ester]
[1]; [6]
  inhibition at 10 µM: 67%
[5]; [9]
  B.P. (systolic blood pressure reduction): -22 mm
[5]; dose 25mg/kg oral, at 4 hours
  B.P. (systolic blood pressure reduction): -31 mm
[3]
  inhibition at 50 µM: 18%
  inhibition at 100 µM: 56%
[4]; 50µM
  Antag. of Actin-Myosin (percent inhibition of superprecipitation): 23%
[4]; 100µM
  Antag. of Actin-Myosin (percent inhibition of superprecipitation): 62%

## NCCCCCCNS(=O)(=O)c1cccc2c(Cl)cccc12 [Example W-7, reference compound]
[2]; read-out: inhibition of isometric force
  inhibition at 10 µM: < 20%

## CO[C@H](COC(=O)C1=C(C)NC2=C(C(=O)CNC2)C1c1c(F)c(F)c(F)c(F)c1F)c1ccccc1 (single isomer, unassigned) [Example 8 Diastereomer A, 1,4,5,6,7,8-Hexahydro-2-methyl-5-oxo-4-(R or S-pentafluorophenyl)-1,7-naphthyridine-3-carboxylic acid(S)-2-methoxy-2-phenylethyl esters]
[1]; 10^-5M, Note: Muscles were pre-treated
  inhibition at 10 µM: 50%
[5]; [10]
  B.P. (systolic blood pressure reduction): -73 mm
[5]; [11]
  B.P. (systolic blood pressure reduction): -86 mm
[3]
  inhibition at 50 µM: 28%
  inhibition at 100 µM: 63%
[4]; 50µM
  Antag. of Actin-Myosin (percent inhibition of superprecipitation): 28%
[4]; 100µM
  Antag. of Actin-Myosin (percent inhibition of superprecipitation): 69%

## CC1=C(C(=O)OCCOc2ccccc2)C(c2c(F)ccc(F)c2F)C2=C(CNCC2=O)N1 (centres unmarked) [Example 16, 1,4,5,6,7,8-Hexahydro-2-methyl-5-oxo-4-(2,3,6-trifluorophenyl)-1,7-naphthyridine-3-carboxylic acid 2-phenoxyethyl ester]
[1]; [6]
  inhibition at 10 µM: 63%
[5]; [9]
  B.P. (systolic blood pressure reduction): -37 mm
[3]
  inhibition at 100 µM: 28%
[4]; 100µM
  Antag. of Actin-Myosin (percent inhibition of superprecipitation): 34%

## COc1ccc(CCN(C)CCCC(C#N)(c2ccc(OC)c(OC)c2)C(C)C)cc1OC (centres unmarked) [Verapamil, reference compound]
[2]
  IC25: 60 nM

## CO[C@H](COC(=O)C1=C(C)NC2=C(C(=O)CNC2)C1c1c(F)c(F)c(F)c(F)c1F)c1ccccc1 (single isomer, unassigned) [Example 8 Diastereomer B, 1,4,5,6,7,8-Hexahydro-2-methyl-5-oxo-4-(R or S-pentafluorophenyl)-1,7-naphthyridine-3-carboxylic acid(S)-2-methoxy-2-phenylethyl esters]
[1]; 10^-5M, Note: Muscles were pre-treated, 10 µM
  P.R. (percent relaxation of aortic tissue): 53%
[5]; [10]
  B.P. (systolic blood pressure reduction): -28 mm
[5]; [11]
  B.P. (systolic blood pressure reduction): -67 mm
[4]; 50µM
  Antag. of Actin-Myosin (percent inhibition of superprecipitation): 30%
[4]; 100µM
  Antag. of Actin-Myosin (percent inhibition of superprecipitation): 64%

## CC1=C(C(=O)OCCOc2cccc(Cl)c2Cl)C(c2c(F)c(F)c(F)c(F)c2F)C2=C(CNCC2=O)N1 (centres unmarked) [Example 22, 1,4,5,6,7,8-Hexahydro-2-methyl-5-oxo-4-(pentafluorophenyl)-1,7-naphthyridine-3-carboxylic acid 2-(2,3-dichlorphenoxy)ethyl ester]
[1]; [6]
  inhibition at 10 µM: 61%
[5]; [9]
  B.P. (systolic blood pressure reduction): -37 mm
[5]; dose 25mg/kg oral, at 4 hours
  B.P. (systolic blood pressure reduction): -52 mm
[3]; 10µM
  inhibition at 10 µM: 25%
[3]
  inhibition at 25 µM: 54 ± 2.5%
  inhibition at 50 µM: 73 ± 1.5%
  inhibition at 100 µM: 74 ± 2%
[4]; 10µM
  Antag. of Actin-Myosin (percent inhibition of superprecipitation): 30±3%
[4]; 25µM
  Antag. of Actin-Myosin (percent inhibition of superprecipitation): 54±3%
[4]; 50µM
  Antag. of Actin-Myosin (percent inhibition of superprecipitation): 75±4%
[4]; 100µM
  Antag. of Actin-Myosin (percent inhibition of superprecipitation): 78±1%

## COC(COC(=O)C1=C(C)NC2=C(C(=O)CNC2)C1c1cccc(Cl)c1)c1ccccc1 (centres unmarked) [Example 11, 4-(3-Chloroahenyl)-1,4,5,6,7,8-hexahydro-2-methyl-5-oxo-1,7--naphthyridine-3-carboxylic acid. 2-methoxv-2-phenvlethvl ester]
[1]; [6]
  inhibition at 10 µM: 31%
[5]; [8]
  B.P. (systolic blood pressure reduction): -29 mm
[3]
  inhibition at 100 µM: 48%
[4]; 100µM
  Antag. of Actin-Myosin (percent inhibition of superprecipitation): 53%
